{"source": "patent US20100168054A1", "about": "“Functionalized Beta 1,6 Glucosamine Disaccharides and Process for Their Preparation” (OM PHARMA, priority 2006, published 2010)", "format_in_all_cases": "in vivo, BALB/c ByJ mice", "key": {"[1]": {"tested_on": "LACK-sensitized and challenged mice", "experiment": "LACK-induced asthma model: LACK-specific IgE in sera", "conditions": "therapeutic", "procedure": "(§1) An example in vivo of the biological activity of two representative compounds of the invention is presented here. Using a mouse model of allergic asthma previously published (described in Julia et al. Immunity. 2002 February; 16(2):271-83), we aimed to investigate whether i.p. administrations of the synthetic molecules OM-174-DP and OM-174-MP-PD would inhibit airway inflammation in LACK-sensitized and challenged mice. To this goal, mice were treated either all along asthma induction (prophylactic model) or therapeutically (i.e. three times after animals have been sensitized to the allergen, the protein LACK). As read-outs, eosinophils were enumerated in bronchoalveolar lavages (BAL), and the well known markers of allergic asthma, namely the Th2 cytokines IL-4, IL-5, and IL-13 were quantified from the lungs. Moreover the level of plasmatic IgE was also reported.\n(§2) OM-174-DP (i.p.)-treated LACK-sensitized and challenged mice (6 mice) Treatment and Schedule with Test or Control Article Experiment started at day 0. On days 0, 2, 3, 4, 7, 9, 10 11, and 12, mice of groups C, and D were treated i.p. with synthetic OM-174-DP (compound 1b) and OM-174-MP-PD (compound 19) respectively at the dose of 1 mg/Kg (20 μg per mouse). Mice of groups E were treated therapeutically i.p. on days 15, 17 and 19 at the dose of 1 mg/Kg (20 μg per mouse).\n(§3) On day 1 and day 8, mice were sensitized i.p. with LACK/Alum. From day 16 to day 20, all the groups except group A mice were challenged with aerosols of a solution of LACK (0.15%). Group A received a saline solution (NaCl 0.9%) (group A) for 40 minutes instead.\nTo analyze specific IgE contents, mice of groups A, B, and G were bled by heart puncture two days after the last aerosol, and sera were prepared. LACK-specific IgE were measured by ELISA."}, "[2]": {"tested_on": "LACK-sensitized and challenged mice", "experiment": "LACK-induced asthma model: eosinophils in bronchoalveolar lavages", "conditions": "for Eosino × 10^6, Mean ± SEM / Eosino × 10^6, individual mice: BAL; for Eosino × 10^6, individual mice: 1 mg/kg", "procedure": "as §1, §2, §3\nFor all the animals, Broncho-alveolar lavages (BAL) were performed. Two days after the last aerosol challenge, mice were bled and a canula was inserted into their trachea. Lungs were washed 3 times with 1 ml of warmed PBS. Cells were washed with PBS, and red blood cells were lysed using a red blood cell lysis buffer. Cells were further washed in PBS and counted. For differential BAL cell counts, cytospin preparations were made and stained with Wright/Giemsa. At least 400 cells were scored for each slide, and the numbers of lymphocytes, neutrophils, eosinophils, and macrophages/DC/pneumocytes (scored as other mononuclear cells) were determined by microscopic examination. Only eosinophilia is reported here."}, "[3]": {"tested_on": "LACK-sensitized and challenged mice", "experiment": "LACK-induced asthma model: pulmonary cytokines", "procedure": "as §1, §2, §3\nTo analyze pulmonary cytokine contents, lungs were harvested and left lungs were used to prepare protein extracts. 400 μl were recovered for each left lung. Cytokines (IL-4 and IL-13 in a first series of analyses, and then IL-5 and IFN-γ) were measured by multiplex analysis using FACSArray. The results, normalized for the protein content, are presented in pg/ml."}, "[4]": {"conditions": "prophylactic, i.p. 1 mg/Kg on days 0, 2, 3, 4, 7, 9, 10, 11, 12"}, "[5]": {"conditions": "therapeutic, i.p. 1 mg/Kg on days 15, 17, 19"}, "[6]": {"conditions": "prophylactic, i.p. 1 mg/Kg, 1 mg/kg"}, "[7]": {"conditions": "therapeutic, i.p. 1 mg/Kg on days 15, 17, 19, 1 mg/kg"}}, "note": "“And” between values parts separate entries of the source, which are not always exact repeats. Equal values may be shown once. Marks after values point to notes of the source that are not given here.", "data": [{"smiles": "CCCCCCCCCCCC(=O)O[C@H](CCCCCCCCCCC)CC(=O)NC1C(OCC2OC(OP(=O)(O)O)C(NC(=O)C[C@H](O)CCCCCCCCCCC)C(O)C2O)OC(CO)C(OP(=O)(O)O)C1O", "note": "(stereo partly drawn) [compound 1b, 2-Deoxy-6-O-[2-deoxy-4-O-(dihydroxyphosphoryl)-2-[(R)-3-dodecanoyloxytetradecanoylamino]-β-D-glucopyranosyl]-2-[(R)-3-hydroxytetradecanoylamino]-α-D-glucopyranosyl dihydrogenophosphate]", "values": [{"measurement": "Mean IgE", "setting": "[1]; sera, i.p. 1 mg/Kg on days 15, 17, 19", "result": "224.56* ng/ml"}, {"measurement": "LACK-specific IgE, individual mice", "setting": "[1]; sera, i.p. 1 mg/Kg on days 15, 17, 19, 1 mg/kg", "result": "188 ng/mL and 159 ng/mL and 94 ng/mL and 382 ng/mL and 395 ng/mL and 129 ng/mL"}, {"measurement": "fold less LACK-specific IgE compared to untreated LACK challenged mice", "setting": "[1]", "result": 2.6, "unit": "fold"}, {"measurement": "Eosino × 10^6, Mean ± SEM", "setting": "[2]; [4]", "result": "109781 ± 139453 × 10^6"}, {"measurement": "Eosino × 10^6, individual mice", "setting": "[2]; [4]", "result": "75359 × 10^6 and 385612 × 10^6 and 33412 × 10^6 and 54158 × 10^6 and 105352 × 10^6 and 4792 × 10^6"}, {"measurement": "Eosino × 10^6, Mean ± SEM", "setting": "[2]; [5]", "result": "13923 ± 7362 × 10^6"}, {"measurement": "Eosino × 10^6, individual mice", "setting": "[2]; [5]", "result": "16744 × 10^6 and 3802 × 10^6 and 7411 × 10^6 and 21739 × 10^6 and 12500 × 10^6 and 21343 × 10^6"}, {"measurement": "times less BAL eosinophilia compared to positive asthmatic group (B)", "setting": "[2]; prophylactic", "result": "about 8 times"}, {"measurement": "factor of decrease of eosinophil count compared to group B", "setting": "[2]; therapeutic, three times", "result": 64}, {"measurement": "fold decrease of IL-4 in lungs compared to group B", "setting": "[3]; prophylactic", "result": 6, "unit": "fold"}, {"measurement": "fold reduction of IL-13 compared to asthmatic mice", "setting": "[3]; prophylactic", "result": 4, "unit": "fold"}, {"measurement": "Mean IL13", "setting": "[3]; prophylactic, i.p. 1 mg/Kg", "result": "13.40* pg/ml"}, {"measurement": "Mean IL-4", "setting": "[3]; prophylactic, i.p. 1 mg/Kg", "result": "1.50** pg/ml"}, {"measurement": "IL13 in lungs, individual mice", "setting": "[3]; [6]", "result": "8.39 pg/mL and 25.39 pg/mL and 8.2 pg/mL and 24.29 pg/mL and 12.52 pg/mL and 1.59 pg/mL"}, {"measurement": "IL-4 in lungs, individual mice", "setting": "[3]; [6]", "result": "1.1 pg/mL and 3.33 pg/mL and 0.71 pg/mL and 2.43 pg/mL and 1.23 pg/mL and 0.17 pg/mL"}, {"measurement": "fold reduction in IL-4 compared to group B", "setting": "[3]; therapeutic", "result": 4, "unit": "fold"}, {"measurement": "fold reduction in IL-13 compared to group B", "setting": "[3]; therapeutic", "result": 3, "unit": "fold"}, {"measurement": "fold reduction of IL-5 compared to untreated mice", "setting": "[3]; therapeutic", "result": 2.8, "unit": "fold"}, {"measurement": "reduction of IFN-γ levels compared to group B (in words)", "setting": "[3]; therapeutic", "result": "reduced twofold"}, {"measurement": "Mean IFN-γ", "setting": "[3]; [5]", "result": "1.38* pg/ml"}, {"measurement": "Mean IL13", "setting": "[3]; [5]", "result": "17.90* pg/ml"}, {"measurement": "Mean IL-4", "setting": "[3]; [5]", "result": "2.33** pg/ml"}, {"measurement": "Mean IL-5", "setting": "[3]; [5]", "result": "6.00** pg/ml"}, {"measurement": "IFN-γ in lungs, individual mice", "setting": "[3]; [7]", "result": "1.62 pg/mL and 0.88 pg/mL and 0.94 pg/mL and 2.2 pg/mL and 0.81 pg/mL and 1.8 pg/mL"}, {"measurement": "IL13 in lungs, individual mice", "setting": "[3]; [7]", "result": "20.35 pg/mL and 5.43 pg/mL and 9.93 pg/mL and 23.68 pg/mL and 21.99 pg/mL and 26.02 pg/mL"}, {"measurement": "IL-4 in lungs, individual mice", "setting": "[3]; [7]", "result": "2.5 pg/ml and 1 pg/ml and 1.58 pg/ml and 3.48 pg/ml (2×) and 1.94 pg/ml"}, {"measurement": "IL-5 in lungs, individual mice", "setting": "[3]; [7]", "result": "7.41 pg/mL and 1.06 pg/mL and 2.15 pg/mL and 9.23 pg/mL and 5.81 pg/mL and 10.33 pg/mL"}]}, {"smiles": "CCCCCCCCCCCC(=O)O[C@H](CCCCCCCCCCC)CC(=O)N[C@H]1[C@H](OC[C@H]2O[C@H](OCC(O)CO)[C@H](NC(=O)C[C@H](O)CCCCCCCCCCC)[C@@H](O)[C@@H]2O)O[C@H](CO)[C@@H](OP(=O)(O)O)[C@@H]1O", "note": "(stereo partly drawn) [compound 19, 2,3-Dihydroxypropyl-2-Deoxy-6-O-[2-deoxy-4-O-(dihydroxyphosphoryl)-2-[(R)-3-dodecanoyloxytetradecanoylamino]-β-D-glucopyranosyl]-2-[(R)-3-hydroxytetradecanoylamino]-α-D-glucopyranoside]", "values": [{"measurement": "Eosino × 10^6, Mean ± SEM", "setting": "[2]; [4]", "result": "100411 ± 80738 × 10^6"}, {"measurement": "Eosino × 10^6, individual mice", "setting": "[2]; [4]", "result": "33286 × 10^6 and 64010 × 10^6 and 47018 × 10^6 and 252294 × 10^6 and 82555 × 10^6 and 123305 × 10^6"}, {"measurement": "times less BAL eosinophilia compared to positive asthmatic group (B)", "setting": "[2]; prophylactic", "result": "about 8 times"}, {"measurement": "fold decrease of IL-4 in lungs compared to group B", "setting": "[3]; prophylactic", "result": 4, "unit": "fold"}, {"measurement": "fold reduction of IL-13 compared to asthmatic mice", "setting": "[3]; prophylactic", "result": 3, "unit": "fold"}, {"measurement": "Mean IL13", "setting": "[3]; prophylactic, i.p. 1 mg/Kg", "result": "16.62* pg/ml"}, {"measurement": "Mean IL-4", "setting": "[3]; prophylactic, i.p. 1 mg/Kg", "result": "2.09** pg/ml"}, {"measurement": "IL13 in lungs, individual mice", "setting": "[3]; [6]", "result": "12.08 pg/mL and 17.1 pg/mL and 8.59 pg/mL and 30.6 pg/mL and 16.14 pg/mL and 15.21 pg/mL"}, {"measurement": "IL-4 in lungs, individual mice", "setting": "[3]; [6]", "result": "1.01 pg/mL and 1.47 pg/mL and 0.91 pg/mL and 5.68 pg/mL and 1.79 pg/mL and 1.66 pg/mL"}]}]}
